Measured values taken from patent US7217511B2, “Methods of increasing antibiotic production in Streptomyces by deletion of the scbA gene” (Plant Bioscience Limited, priority 2000, dated 2007).

What was measured:
[1] = test system: S. coelicolor M751 (ΔscbA)
[2] = test system: S. coelicolor M751 (ΔscbA); remark: listed apart in the source
Description: (§1) Bioassay using spore suspension of M145(top), M751(left bottom) and M752(right bottom) as indicator strain and spotted with 1 μg of SCB1. The plates were incubated at 30° C. for 20 h (left panel) or 40 h (right panel).
(§2) γ-butyrolactones were isolated from liquid or solid media by extracting the culture supernant or the agar with ethylacetate. The ethylacetate was evaporated and the sample was resuspended in 100% methanol for use in a bioassay or for HPLC analysis. Bioassay and HPLC analysis were conducted as described previously (Takano et al., 2000).

S. coelicolor M145 = test system: S. coelicolor M145
Description: as §1, §2

[3] = test system: S. coelicolor M752 (ΔscbR)
Description: as §1, §2

Chain of ScbR (as listed by the source): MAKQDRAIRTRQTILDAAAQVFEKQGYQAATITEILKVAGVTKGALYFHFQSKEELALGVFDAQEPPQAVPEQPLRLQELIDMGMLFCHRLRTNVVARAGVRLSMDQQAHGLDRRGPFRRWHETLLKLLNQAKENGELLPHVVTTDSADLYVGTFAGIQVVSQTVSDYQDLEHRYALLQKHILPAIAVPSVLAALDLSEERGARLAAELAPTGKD

Molecule | Level of scbR transcription [1] | scbA transcription [1] | Effect of high concentrations of SCB1 on antibiotic production (lighter halo around the point of application) [2] | Response to exogenous SCB1 (antibiotic production in lawn) (S. coelicolor M145) | Response to exogenous SCB1 (antibiotic production in lawn) [3] | Formation of the DNA-protein complex (DNA-binding activity of ScbR) (ScbR)
CC(C)CCCC[C@@H](O)[C@@H]1C(=O)OC[C@H]1CO [SCB1] | marked increase | not restored | inhibitory effect | responded in the expected way | did not respond | –
2-isocaryloyl-3R-hydroxymethyl-γ-butyrolactone [A-factor] | – | – | – | – | – | failed to inhibit
